Assay results as given in publication PMC5962403 (SLAS discovery : advancing life sciences R & D, 2018).

How the values were obtained:
CBX7 ChD = target: T1, CBX7 ChD (Homo sapiens, UniProt O95931); assay type: binding; settings: control ligands on 24 DNA constructs each, relative to nonligand
T1 sequence (O95931 11-69 limits assumed): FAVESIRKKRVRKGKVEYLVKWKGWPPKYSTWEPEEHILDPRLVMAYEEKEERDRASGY

CBX7 = settings: cited from earlier work

enrichment in model selection against CBX7 (in words) (CBX7 ChD)	Substance	selectivity to CBX7 over other CBX proteins and ChDs (CBX7)	Kd (CBX7; reported Kd for CBX7) [nM]
moderately enriched	Ac-F-A-I-Kme3-S-140-mers [medium-affinity ligand]		
poorly enriched	Bz-A-I-Kme3-S-140-mers [low-affinity ligand]		
	UNC3866	6- to 18 fold	97
